Our source for the EC50 values is PMC6084781 (Cancer letters, 2018).

The target of one experiment is ABCB1 (Homo sapiens, UniProt P08183). Nature of the experiment: vanadate-sensitive ATPase stimulation in membrane vesicles. In kind it is biochemical.
A further experiment concerns the target T1, ABCG2 (Homo sapiens, UniProt Q9UNQ0).
T1 sequence (Q9UNQ0 1-655): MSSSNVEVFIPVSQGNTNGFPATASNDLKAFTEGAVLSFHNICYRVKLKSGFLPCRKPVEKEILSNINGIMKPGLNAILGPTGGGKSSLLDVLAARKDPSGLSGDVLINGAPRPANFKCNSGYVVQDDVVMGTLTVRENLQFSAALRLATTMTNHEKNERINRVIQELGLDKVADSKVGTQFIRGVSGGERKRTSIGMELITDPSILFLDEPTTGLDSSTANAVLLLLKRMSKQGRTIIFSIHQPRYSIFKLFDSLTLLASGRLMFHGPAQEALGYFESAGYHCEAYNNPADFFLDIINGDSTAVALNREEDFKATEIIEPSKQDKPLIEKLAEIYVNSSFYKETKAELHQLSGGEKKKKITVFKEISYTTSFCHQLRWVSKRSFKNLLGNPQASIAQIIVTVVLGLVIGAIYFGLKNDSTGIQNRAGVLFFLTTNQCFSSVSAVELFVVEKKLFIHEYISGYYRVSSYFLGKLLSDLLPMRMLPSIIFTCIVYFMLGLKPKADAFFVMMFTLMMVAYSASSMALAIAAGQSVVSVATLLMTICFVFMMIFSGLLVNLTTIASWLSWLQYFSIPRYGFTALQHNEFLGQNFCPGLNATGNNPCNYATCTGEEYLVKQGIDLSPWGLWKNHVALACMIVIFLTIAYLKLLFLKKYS
The experiment is described as above. In kind it is biochemical.

Structures are written as SMILES.

ABCB1, sequence (P08183 whole entry): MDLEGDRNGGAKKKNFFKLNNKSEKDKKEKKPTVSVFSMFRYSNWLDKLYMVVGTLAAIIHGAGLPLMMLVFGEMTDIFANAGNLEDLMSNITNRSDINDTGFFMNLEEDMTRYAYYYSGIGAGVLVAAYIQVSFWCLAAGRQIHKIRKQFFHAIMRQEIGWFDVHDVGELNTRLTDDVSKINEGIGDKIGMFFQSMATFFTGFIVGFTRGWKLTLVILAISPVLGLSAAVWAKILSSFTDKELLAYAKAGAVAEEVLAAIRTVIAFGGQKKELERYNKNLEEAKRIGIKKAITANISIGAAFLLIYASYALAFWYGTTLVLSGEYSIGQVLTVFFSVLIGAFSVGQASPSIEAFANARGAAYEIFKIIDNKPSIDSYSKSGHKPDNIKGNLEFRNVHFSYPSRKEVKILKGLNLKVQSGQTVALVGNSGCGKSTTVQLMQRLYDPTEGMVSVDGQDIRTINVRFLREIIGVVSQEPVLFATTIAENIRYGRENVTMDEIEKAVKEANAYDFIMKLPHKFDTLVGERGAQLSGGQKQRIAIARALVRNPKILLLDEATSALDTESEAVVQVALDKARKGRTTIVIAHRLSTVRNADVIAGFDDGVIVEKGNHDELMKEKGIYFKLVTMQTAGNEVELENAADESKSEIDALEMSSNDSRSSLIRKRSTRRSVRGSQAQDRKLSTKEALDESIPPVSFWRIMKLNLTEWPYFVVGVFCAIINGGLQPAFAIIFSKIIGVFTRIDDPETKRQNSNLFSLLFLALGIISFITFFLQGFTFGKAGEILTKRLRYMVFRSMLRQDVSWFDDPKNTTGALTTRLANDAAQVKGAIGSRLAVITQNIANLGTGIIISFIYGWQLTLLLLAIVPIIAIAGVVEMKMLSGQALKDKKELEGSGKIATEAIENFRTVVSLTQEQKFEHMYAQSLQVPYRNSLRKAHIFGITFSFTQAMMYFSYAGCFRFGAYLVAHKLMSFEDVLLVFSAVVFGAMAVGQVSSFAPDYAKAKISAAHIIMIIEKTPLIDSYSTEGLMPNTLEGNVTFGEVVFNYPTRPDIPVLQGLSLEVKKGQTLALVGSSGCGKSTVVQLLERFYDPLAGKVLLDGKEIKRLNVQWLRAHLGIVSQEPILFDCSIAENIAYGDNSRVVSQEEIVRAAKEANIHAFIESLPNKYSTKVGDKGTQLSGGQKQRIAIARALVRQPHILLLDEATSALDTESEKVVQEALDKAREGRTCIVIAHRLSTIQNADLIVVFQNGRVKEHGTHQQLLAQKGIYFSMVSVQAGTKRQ

Broadly, the EC50 is the concentration needed to bring the measured effect to its halfway point. A high value points to lower potency in that assay. As for `COc1cc2c(cc1OC)CN(C(=O)/C=C/c1c(-c3ccccc3)n(C)c3ncccc13)CC2` [SIS3], the concentration giving a half-maximal response (EC50) is roughly 160 nM at ABCB1 and roughly 60 nM on ABCG2.
